Results taken from paper PMC3914206.

Legend:
[1] = target: T1, panel of 442 kinases (Homo sapiens, UniProt P57078); assay type: binding; details: Compound Concentration 10 µM
T1 construct: purchased KINOMEscan
T1 sequence (P57078 1-832): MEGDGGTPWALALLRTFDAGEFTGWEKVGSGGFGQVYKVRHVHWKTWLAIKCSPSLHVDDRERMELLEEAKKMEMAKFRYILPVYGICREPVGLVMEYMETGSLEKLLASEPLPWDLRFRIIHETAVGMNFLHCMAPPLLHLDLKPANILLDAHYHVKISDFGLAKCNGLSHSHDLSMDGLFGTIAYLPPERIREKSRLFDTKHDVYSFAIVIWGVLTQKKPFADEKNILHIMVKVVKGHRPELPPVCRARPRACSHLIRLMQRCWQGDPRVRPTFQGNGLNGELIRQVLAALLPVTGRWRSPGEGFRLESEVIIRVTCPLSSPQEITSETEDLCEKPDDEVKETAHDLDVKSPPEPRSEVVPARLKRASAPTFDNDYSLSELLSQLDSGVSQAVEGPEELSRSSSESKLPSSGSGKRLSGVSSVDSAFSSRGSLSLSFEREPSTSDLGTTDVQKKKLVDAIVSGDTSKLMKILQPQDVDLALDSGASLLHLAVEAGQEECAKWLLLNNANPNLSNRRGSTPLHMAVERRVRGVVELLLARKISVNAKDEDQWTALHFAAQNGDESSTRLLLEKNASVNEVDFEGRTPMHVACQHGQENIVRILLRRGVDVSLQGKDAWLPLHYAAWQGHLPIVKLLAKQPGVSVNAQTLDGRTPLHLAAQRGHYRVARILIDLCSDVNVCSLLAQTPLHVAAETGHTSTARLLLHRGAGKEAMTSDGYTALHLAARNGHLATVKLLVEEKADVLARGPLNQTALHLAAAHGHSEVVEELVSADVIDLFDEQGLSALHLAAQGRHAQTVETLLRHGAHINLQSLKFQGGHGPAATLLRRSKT
Description: (§1) We assessed the selectivity of members of this scaffold using the KINOMEscan methodology across a near comprehensive panel of 442 kinases [[18,27]].

[2] = target: T2, panel of 442 kinases (Homo sapiens, UniProt Q8WTQ7); assay type: binding; details: Compound Concentration 10 µM
T2 construct: purchased KINOMEscan
T2 sequence (Q8WTQ7 1-553): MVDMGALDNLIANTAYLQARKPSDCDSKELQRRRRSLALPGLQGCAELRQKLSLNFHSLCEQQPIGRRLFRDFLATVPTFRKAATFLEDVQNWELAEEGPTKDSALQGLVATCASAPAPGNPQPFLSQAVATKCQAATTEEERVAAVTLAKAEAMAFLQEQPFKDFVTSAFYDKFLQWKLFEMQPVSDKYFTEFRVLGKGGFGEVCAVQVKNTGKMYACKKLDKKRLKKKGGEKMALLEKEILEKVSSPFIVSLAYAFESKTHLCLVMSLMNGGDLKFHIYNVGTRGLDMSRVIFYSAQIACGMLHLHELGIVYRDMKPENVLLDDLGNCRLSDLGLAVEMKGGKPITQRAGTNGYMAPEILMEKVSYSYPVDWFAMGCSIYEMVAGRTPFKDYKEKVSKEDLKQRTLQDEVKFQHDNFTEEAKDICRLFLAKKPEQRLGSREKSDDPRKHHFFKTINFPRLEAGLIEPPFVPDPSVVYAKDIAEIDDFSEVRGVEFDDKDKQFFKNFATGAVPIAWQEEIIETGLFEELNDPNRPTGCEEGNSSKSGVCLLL
Description: as §1

| SMILES | KINOMEscan: RIPK4 [1] | KINOMEscan: GRK7 [2] |
| --- | --- | --- |
| COc1cc(C(=O)N2CCC(N3CCN(C)CC3)CC2)ccc1Nc1ncc2c(n1)N(C1CCCC1)c1ccccc1C(=O)N2C [Compound 25, 11-cyclopentyl-2-((2-methoxy-4-(4-(4-methylpiperazin-1-yl)piperidine-1-carbonyl)phenyl)amino)-5-methyl-5H-benzo[e]pyrimido[5,4-b][1,4]diazepin-6(11H)-one] | 100 | 94 |
| CCOc1cc(C(=O)N2CCC(N3CCN(C)CC3)CC2)ccc1Nc1ncc2c(n1)N(C1CCCC1)c1ccccc1C(=O)N2C [Compound 26] | 100 | 100 |
| COc1cc(C(=O)N2CCC(N3CCN(C)CC3)CC2)ccc1Nc1ncc2c(n1)N(C)c1ccccc1C(=O)N2C [15 (LRRK2-IN-1)] | 74 | 100 |
